Values quoted from earlier work as cited in patent US5744316A, “Isolated, tyrosinase derived peptides and uses thereof” (Ludwig Institute for Cancer Research, priority 1996, dated 1998).
Where no end group is shown, it is not given here.

Key:
HLA-B44 = conditions: Burrows et al. 1990
HLA-B*4402 molecules = HLA-B*4402 molecules (Homo sapiens, UniProt P01889, A223V/A65T/A93T/A95T/D201E/D98Y/E176V/E187L/E204Q/E69K/G107R/H137Y/K202T/L105A/L119I/N104T/N87E/Q56L/Q94N/R106L/R155S/R180D/S101N/S121R/S35A/S48T/T118I/V36M/W191S/Y140D/Y91S); conditions: Coulie et al. 1995

binding to HLA-B*4402 molecules (HLA-B*4402 molecules)	Sequence	binding by HLA-B44 (HLA-B44)
	EENLLDFVRF [SEQ ID NO: 9]	bound
binds	EEKLIVVLF [SEQ ID NO: 11]	
